In patent US9199200B2, “Submerged membrane bioreactor system and biological methods for removing bisphenol compounds from municipal wastewater” (Centre de Recherche Industrielle de Québec (CRIQ), priority 2010, dated 2015):

Assay: Adsorption kinetics of BPA on inactivated sludge (pseudo-first order, pseudo-second order, Elovich)
Format: physicochemical
Experimental: According to the second set of assays, adsorption kinetic is evaluated using 200 mL of inactivated sludge at 15 g L^−1 and 2.0 mg/L of BPA is initially used. The flasks are shaken at 150 rpm at 22±2° C. and samples are taken at regular interval times (5, 10, 15, 20, 30, 40, 60, 80, 100, 120 min). Several appropriate models are reported in literature, but for the purposes of the experiments, three models are used, namely the Lagergren model (first order model) as described by Lagergren in Kung Sven. Veten. Hand 24 (1898) 1-39, the pseudo-second-order as described by Ho et al. in Process Biochemistry 34 (1999) 451-465, and the Elovich model as described in Chemical reviews (1960) 267-312.
Adsorption kinetic allows controlling the efficiency of the process and can be helpful to understand the mechanisms of the sorption process. To evaluate the sorption rate, the kinetic data are modeled using pseudo-first order and pseudo-second order equations. The kinetic models parameters are estimated by regression analysis method using Excel™ software. In accordance with Lagegren as cited above and with Bhattacharya et al., J. Env. Eng. ASCE 110 (1984) 110-122, pseudo-first order chemical sorption is described by the following equation (Eq. (15)):
This model is based on the assumption that the rate is proportional to the number of free sites. Integrating Eq. (15) with boundary conditions qt=0 at t=0 and qt=qt at t=t gives (Eq. (16)): ln(qe−qt)=ln qe−k1t (16)
In accordance with Ho et al. as cited above, for the rate constant of pseudo-second order chemical sorption, the following equation (Eq. (17)) has been also applied: […]
A third model, known as Elovich model described in Low et al. cited above, has been applied using the following equation (Eq. (19)): […]
If an amount (q0) of adsorbate is instantaneously adsorbed, after integration equation Eq. (20) becomes (Eq. (21)): […]

[1] = 2.0 mg/L BPA, 15 g/L inactivated sludge

CC(C)(c1ccc(O)cc1)c1ccc(O)cc1 [BPA, 2,2-Bis(4-hydroxyphenyl)propane]
q0 as share of the amount of BPA adsorbed at equilibrium (qe): 1.2%
k1, pseudo-first order rate constant [1]: 0.032 min⁻¹
k2, pseudo-second order rate constant [1]: 0.194 g/mg/min
q0, amount of BPA instantaneously adsorbed (Elovich) [1]: 0.0013 mg/g
qe, pseudo-first order (Lagergren) [1]: 0.109 mg/g
qe, pseudo-second order [1]: 0.132 mg/g
α (Elovich) [1]: 24.98 g/mg
α (Elovich), second parameter [1]: 0.0040 mg/g/min
